Assay results reported in ChEMBL document CHEMBL1153221, “The identification of structurally novel, selective, orally bioavailable positive modulators of mGluR2” (Bioorg Med Chem Lett, 2010).
In brackets after ≈: the same amount, converted by molar mass. Activity calls are given as the source filed them. The calls are words filed in the database; no cut-off is given here.

Experiments:
[1] = target: T1, Metabotropic glutamate receptor 2 (Homo sapiens, UniProt Q14416); assay: Positive modulation of human mGluR2 expressed in CHO cells co-expressing Ga16 G-protein assessed as glutamate-induced response by FLIPR assay; type: cell-based
Target sequence in this assay (Q14416 whole entry): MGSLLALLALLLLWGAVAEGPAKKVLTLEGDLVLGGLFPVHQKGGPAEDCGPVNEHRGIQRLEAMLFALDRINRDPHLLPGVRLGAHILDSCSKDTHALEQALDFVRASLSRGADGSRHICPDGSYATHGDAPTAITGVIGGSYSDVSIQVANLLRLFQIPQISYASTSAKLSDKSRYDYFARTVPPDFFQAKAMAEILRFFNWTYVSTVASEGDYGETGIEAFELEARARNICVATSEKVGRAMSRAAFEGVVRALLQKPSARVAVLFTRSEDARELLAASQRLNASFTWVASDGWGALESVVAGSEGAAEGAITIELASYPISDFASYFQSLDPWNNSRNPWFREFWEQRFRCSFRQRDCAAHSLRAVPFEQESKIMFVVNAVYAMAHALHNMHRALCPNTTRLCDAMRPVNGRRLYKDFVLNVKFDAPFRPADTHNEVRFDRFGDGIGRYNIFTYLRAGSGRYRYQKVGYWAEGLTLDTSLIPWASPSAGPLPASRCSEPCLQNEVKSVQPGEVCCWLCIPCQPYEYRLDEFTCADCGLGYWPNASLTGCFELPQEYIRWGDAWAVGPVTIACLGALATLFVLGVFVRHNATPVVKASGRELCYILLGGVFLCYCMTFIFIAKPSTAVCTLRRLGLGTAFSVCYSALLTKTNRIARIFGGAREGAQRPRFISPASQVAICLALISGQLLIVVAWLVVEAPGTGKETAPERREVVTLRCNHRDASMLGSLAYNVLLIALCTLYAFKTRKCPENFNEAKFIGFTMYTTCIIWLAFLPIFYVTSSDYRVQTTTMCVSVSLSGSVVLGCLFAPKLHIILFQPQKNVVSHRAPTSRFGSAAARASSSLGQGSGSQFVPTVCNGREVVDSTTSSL

[2] = target: T1, Metabotropic glutamate receptor 2; assay: Agonist activity at human mGluR2 expressed in CHO cells co-expressing Ga16 G-protein assessed as glutamate-induced response by FLIPR assay; type: functional, cell-based
Target sequence in this assay (Q14416 whole entry): as above

D(4) dopamine receptor = target: T2, D(4) dopamine receptor (Homo sapiens, UniProt P21917); assay: Antagonist activity at human D4 receptor expressed in HEK293 cells co-expressing Gqo5 G-protein by FLIPR assay; type: functional, cell-based
T2 sequence (P21917 whole entry): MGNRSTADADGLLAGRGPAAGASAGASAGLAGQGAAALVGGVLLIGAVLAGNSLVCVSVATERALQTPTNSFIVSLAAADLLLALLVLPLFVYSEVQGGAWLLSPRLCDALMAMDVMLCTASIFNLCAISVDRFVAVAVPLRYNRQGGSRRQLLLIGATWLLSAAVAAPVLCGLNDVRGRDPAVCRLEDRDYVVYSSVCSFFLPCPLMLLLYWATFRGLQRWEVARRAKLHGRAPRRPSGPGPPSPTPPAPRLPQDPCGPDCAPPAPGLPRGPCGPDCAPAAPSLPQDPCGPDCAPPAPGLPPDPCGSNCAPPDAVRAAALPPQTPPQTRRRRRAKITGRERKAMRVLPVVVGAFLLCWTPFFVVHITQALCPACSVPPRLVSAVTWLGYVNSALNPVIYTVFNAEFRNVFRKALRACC

[3] = target: T1, Metabotropic glutamate receptor 2; assay: Positive modulation of human mGluR2 expressed in CHO cells co-expressing Ga16 G-protein assessed as glutamate-induced response by FLIPR assay relative to glutamate; type: cell-based
Target sequence in this assay (Q14416 19-872 limits assumed): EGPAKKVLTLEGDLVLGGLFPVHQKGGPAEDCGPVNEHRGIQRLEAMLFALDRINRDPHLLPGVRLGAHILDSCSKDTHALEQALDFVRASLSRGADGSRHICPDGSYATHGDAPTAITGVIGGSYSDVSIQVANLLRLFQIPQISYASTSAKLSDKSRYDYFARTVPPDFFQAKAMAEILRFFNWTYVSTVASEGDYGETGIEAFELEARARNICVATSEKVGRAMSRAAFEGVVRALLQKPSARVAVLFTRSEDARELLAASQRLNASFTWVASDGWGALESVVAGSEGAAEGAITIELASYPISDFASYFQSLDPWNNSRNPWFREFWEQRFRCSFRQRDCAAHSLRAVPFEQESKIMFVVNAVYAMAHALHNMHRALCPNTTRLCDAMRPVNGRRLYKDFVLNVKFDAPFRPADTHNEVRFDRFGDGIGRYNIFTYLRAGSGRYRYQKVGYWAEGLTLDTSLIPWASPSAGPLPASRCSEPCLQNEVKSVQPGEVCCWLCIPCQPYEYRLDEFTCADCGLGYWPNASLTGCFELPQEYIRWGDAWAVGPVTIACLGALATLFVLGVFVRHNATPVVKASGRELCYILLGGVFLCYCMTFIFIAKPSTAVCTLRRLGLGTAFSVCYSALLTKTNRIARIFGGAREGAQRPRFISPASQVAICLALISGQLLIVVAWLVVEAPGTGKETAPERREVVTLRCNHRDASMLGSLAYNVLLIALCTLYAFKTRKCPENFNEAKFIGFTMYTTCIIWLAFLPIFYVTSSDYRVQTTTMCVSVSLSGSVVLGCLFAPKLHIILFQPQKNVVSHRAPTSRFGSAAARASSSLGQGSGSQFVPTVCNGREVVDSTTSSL

[4] = Inhibition of field excitatory postsynaptic potential in Wistar rat medial perforant path dentate gyrus after 20 mins by electrophysiological assay; type: functional, tissue-based
[5] = Inhibition of field excitatory postsynaptic potential in Wistar rat medial perforant path dentate gyrus after 20 mins by electrophysiological assay in presence of 10 uM GSK1331268
D(3) dopamine receptor = D(3) dopamine receptor (Homo sapiens, UniProt P35462); assay: Antagonist activity at human D3 receptor expressed in CHO cells co-expressing G0 by [35S]GTPgammaS binding assay; type: functional, cell-based
D(2) dopamine receptor = D(2) dopamine receptor (Homo sapiens, UniProt P14416); assay: Antagonist activity at human D2 receptor expressed in CHO cells co-expressing G0 by [35S]GTPgammaS binding assay; type: functional, cell-based
[6] = target: Metabotropic glutamate receptor 4 (Homo sapiens) (UniProt Q14833); assay: Antagonist activity at mGluR4; type: functional
[7] = target: T3, Metabotropic glutamate receptor 1 (Homo sapiens, UniProt Q13255); assay: Positive modulation of mGluR1
Target sequence in this assay (Q13255 19-1194 limits assumed): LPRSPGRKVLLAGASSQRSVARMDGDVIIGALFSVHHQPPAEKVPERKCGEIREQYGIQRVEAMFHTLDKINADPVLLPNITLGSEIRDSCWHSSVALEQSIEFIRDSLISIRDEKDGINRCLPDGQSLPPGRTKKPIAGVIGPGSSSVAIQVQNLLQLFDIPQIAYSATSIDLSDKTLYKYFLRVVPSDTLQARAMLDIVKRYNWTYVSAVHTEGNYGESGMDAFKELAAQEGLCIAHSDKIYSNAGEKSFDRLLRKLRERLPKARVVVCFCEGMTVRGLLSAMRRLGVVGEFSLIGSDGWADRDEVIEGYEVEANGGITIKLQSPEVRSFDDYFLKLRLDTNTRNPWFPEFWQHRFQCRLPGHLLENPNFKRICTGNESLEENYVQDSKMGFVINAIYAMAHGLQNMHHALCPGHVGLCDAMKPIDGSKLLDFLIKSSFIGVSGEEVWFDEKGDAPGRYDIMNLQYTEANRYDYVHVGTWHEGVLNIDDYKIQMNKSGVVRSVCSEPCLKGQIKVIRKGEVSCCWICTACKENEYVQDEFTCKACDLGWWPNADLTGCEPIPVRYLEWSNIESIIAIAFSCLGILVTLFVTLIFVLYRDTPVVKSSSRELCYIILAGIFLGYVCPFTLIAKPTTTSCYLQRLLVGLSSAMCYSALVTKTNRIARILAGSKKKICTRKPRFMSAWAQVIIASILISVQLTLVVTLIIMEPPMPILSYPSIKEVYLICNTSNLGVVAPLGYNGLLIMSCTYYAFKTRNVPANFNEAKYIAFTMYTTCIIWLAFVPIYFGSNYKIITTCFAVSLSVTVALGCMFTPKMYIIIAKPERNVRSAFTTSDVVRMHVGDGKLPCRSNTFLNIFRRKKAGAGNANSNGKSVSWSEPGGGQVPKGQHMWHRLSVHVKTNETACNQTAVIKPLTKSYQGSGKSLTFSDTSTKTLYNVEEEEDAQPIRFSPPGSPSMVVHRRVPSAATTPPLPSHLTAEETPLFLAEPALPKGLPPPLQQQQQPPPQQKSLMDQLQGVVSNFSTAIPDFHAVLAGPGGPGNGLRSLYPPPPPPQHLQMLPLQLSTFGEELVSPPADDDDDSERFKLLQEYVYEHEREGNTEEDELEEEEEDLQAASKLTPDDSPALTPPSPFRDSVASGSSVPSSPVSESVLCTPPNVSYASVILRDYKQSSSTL

[8] = target: T3, Metabotropic glutamate receptor 1; assay: Antagonist activity at mGluR1; type: functional
[9] = target: T4, Metabotropic glutamate receptor 5 (Homo sapiens, UniProt P41594); assay: Positive modulation of mGluR5
[10] = target: Metabotropic glutamate receptor 4 (Homo sapiens) (UniProt Q14833); assay: Positive modulation of mGluR4
[11] = target: T4, Metabotropic glutamate receptor 5; assay: Agonist activity at mGluR5; type: functional
[12] = target: T4, Metabotropic glutamate receptor 5; assay: Antagonist activity at mGluR5; type: functional
[13] = target: Metabotropic glutamate receptor 4 (Homo sapiens) (UniProt Q14833); assay: Agonist activity at mGluR4; type: functional
[14] = target: T3, Metabotropic glutamate receptor 1; assay: Agonist activity at mGluR1; type: functional
[15] = Solubility of the compound; type: physicochemical

Chain of Metabotropic glutamate receptor 4 (Homo sapiens) (Q14833 whole entry): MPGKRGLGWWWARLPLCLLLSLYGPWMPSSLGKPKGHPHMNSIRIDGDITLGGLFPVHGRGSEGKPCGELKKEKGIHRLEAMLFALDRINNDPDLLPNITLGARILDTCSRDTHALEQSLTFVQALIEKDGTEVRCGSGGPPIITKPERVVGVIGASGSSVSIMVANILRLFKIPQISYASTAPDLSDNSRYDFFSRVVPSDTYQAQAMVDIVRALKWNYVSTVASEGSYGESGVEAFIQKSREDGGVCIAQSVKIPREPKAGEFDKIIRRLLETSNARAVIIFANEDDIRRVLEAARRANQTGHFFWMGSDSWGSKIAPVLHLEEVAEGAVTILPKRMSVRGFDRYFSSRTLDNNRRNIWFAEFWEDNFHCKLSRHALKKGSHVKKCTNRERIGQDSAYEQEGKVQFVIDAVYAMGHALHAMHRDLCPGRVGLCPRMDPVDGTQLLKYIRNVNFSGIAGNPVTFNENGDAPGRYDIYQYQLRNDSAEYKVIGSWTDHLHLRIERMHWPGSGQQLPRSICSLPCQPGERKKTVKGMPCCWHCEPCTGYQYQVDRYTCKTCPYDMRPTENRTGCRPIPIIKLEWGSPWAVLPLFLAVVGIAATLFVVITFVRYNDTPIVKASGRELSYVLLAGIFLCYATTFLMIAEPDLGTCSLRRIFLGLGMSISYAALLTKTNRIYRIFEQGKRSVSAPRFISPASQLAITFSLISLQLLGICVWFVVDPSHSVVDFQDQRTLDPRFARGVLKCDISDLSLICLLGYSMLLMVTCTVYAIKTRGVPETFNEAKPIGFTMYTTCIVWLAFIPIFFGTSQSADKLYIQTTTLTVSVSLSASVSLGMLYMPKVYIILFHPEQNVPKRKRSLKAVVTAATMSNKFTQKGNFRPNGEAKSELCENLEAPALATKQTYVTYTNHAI
Chain of D(2) dopamine receptor (P14416 whole entry): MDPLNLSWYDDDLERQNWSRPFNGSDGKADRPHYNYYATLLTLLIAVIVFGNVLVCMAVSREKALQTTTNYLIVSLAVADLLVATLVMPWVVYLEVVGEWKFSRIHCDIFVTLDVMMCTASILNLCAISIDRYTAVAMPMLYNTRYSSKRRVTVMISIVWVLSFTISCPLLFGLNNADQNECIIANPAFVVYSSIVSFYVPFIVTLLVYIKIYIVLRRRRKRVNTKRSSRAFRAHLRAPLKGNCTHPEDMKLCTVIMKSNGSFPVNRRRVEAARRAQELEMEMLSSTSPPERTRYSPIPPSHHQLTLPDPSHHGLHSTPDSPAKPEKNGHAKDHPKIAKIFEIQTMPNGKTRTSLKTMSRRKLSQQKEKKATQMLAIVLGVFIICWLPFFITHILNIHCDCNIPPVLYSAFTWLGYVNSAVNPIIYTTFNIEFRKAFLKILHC
Chain of D(3) dopamine receptor (P35462 whole entry): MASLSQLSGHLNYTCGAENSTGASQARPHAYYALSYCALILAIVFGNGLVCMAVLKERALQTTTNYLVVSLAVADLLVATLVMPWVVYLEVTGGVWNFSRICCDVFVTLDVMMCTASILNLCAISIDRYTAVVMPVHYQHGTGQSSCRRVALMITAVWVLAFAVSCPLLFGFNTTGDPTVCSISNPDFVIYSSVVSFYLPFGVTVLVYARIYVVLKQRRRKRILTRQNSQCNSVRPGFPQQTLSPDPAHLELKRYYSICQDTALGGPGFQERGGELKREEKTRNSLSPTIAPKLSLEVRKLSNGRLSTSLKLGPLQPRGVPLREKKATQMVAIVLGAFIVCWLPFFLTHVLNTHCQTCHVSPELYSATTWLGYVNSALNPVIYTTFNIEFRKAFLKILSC

| EC50 [1] | EC50 [2] | Ki (D(4) dopamine receptor) | Emax [3] | Ki (D(3) dopamine receptor) | Ki (D(2) dopamine receptor) | SMILES | also measured |
| --- | --- | --- | --- | --- | --- | --- | --- |
| 316 nM | > 15800 nM | 631 nM | 84% |  |  | Cn1c(CN2CCN(c3ccccc3C(F)(F)F)CC2)nc2ccccc21 |  |
|  |  |  |  |  |  | COc1ccccc1Oc1ccc(N(Cc2cccnc2)S(=O)(=O)CC(F)(F)F)cc1 | pEC50 [4]: 6.864; pEC50 [5]: 7.364 |
| > 3160 nM | > 15800 nM |  |  |  |  | Cn1c(CN2CCC(c3ccccn3)CC2)nc2ccccc21 |  |
| 200 nM | 6310 nM | 100 nM | 89% | 126 nM | 25.1 nM | Cn1c(CN2CCC(c3ccccc3)CC2)nc2ccccc21 |  |
| 794 nM | > 15800 nM | 126 nM |  | > 10000 nM | > 10000 nM | Cn1c(CN2CCN(c3ccc(Cl)cc3)CC2)nc2ccccc21 |  |
| 12600 nM |  |  |  |  |  | FC(F)(F)c1cnc(N2CCN(Cc3nc4ccccc4[nH]3)CC2)c(Cl)c1 |  |
| 39.8 nM | 631 nM | 2510 nM | 70% | 1580 nM | 794 nM | Cn1c(CN2CCC(c3ncc(C(F)(F)F)cc3Cl)CC2)nc2ccccc21 |  |
| 158 nM |  |  |  |  |  | CCn1c(CN2CCN(c3ncc(Cl)cn3)CC2)nc2ccccc21 |  |
| 79.4 nM | 5010 nM | 63.1 nM | 91% | 316 nM | 15.8 nM | Cn1c(CN2CCC(c3ccc(Cl)cc3)CC2)nc2ccccc21 |  |
| 126 nM |  |  |  |  |  | Clc1cnc(N2CCN(Cc3nc4ccccc4n3Cc3ccccc3)CC2)nc1 |  |
| 316 nM | 2000 nM | 794 nM | 88% | > 10000 nM | > 10000 nM | Cn1c(CN2CCN(c3nc4ccccc4s3)CC2)nc2ccccc21 |  |
| 200 nM | 2510 nM | 200 nM | 84% | 3980 nM | 79.4 nM | Cn1c(CN2CCC(c3nsc4ccccc34)CC2)nc2ccccc21 |  |
| > 12600 nM |  |  |  |  |  | Cn1c(CN2CCN(c3ccc(C#N)cc3)CC2)nc2ccccc21 |  |
| 158 nM |  |  |  |  |  | COCCn1c(CN2CCN(c3ncc(C(F)(F)F)cc3Cl)CC2)nc2ccccc21 |  |
| 100 nM | 3980 nM | 251 nM | 92% | 1580 nM | 39.8 nM | Cn1c(CN2CCC(c3cccc(Cl)c3)CC2)nc2ccccc21 |  |
| 63.1 nM |  |  |  |  |  | CCn1c(CN2CCN(c3ncc(C(F)(F)F)cc3Cl)CC2)nc2ccccc21 |  |
| 100 nM | 2510 nM | 251 nM | 94% | > 10000 nM | 126 nM | Cn1c(CN2CCC(c3cccc(C(F)(F)F)c3)CC2)nc2ccccc21 |  |
| 316 nM | 6310 nM |  | 94% | 501 nM | > 3160 nM | Cn1c(CN2CCC(c3ccccc3C(F)(F)F)CC2)nc2ccccc21 |  |
| 200 nM |  |  |  |  |  | Cn1c(CN2CCN(c3ncc(C(F)(F)F)cc3Cl)CC2)nc2cc(F)ccc21 |  |

| EC50 [1] | EC50 [2] | Ki (D(4) dopamine receptor) | Emax [3] | Ki (D(3) dopamine receptor) | Ki (D(2) dopamine receptor) | SMILES | also measured |
| --- | --- | --- | --- | --- | --- | --- | --- |
| 2510 nM |  |  |  |  |  | CCCn1c(CN2CCN(c3ncc(C(F)(F)F)cc3Cl)CC2)nc2ccccc21 |  |
| 158 nM | 3160 nM | 7.94 nM | 76% | > 10000 nM | 398 nM | Cn1c(CN2CCC(c3nc4ccccc4s3)CC2)nc2ccccc21 |  |
| 100 nM | 2000 nM | 126 nM | 110% | > 10000 nM | 251 nM | Cn1c(CN2CCC(c3ccc(C(F)(F)F)cc3)CC2)nc2ccccc21 |  |
| 15800 nM |  |  | 100% |  |  | Cn1c(CN2CCN(c3ccccn3)CC2)nc2ccccc21 |  |
| 5010 nM | > 15800 nM |  | 100% |  |  | Cn1c(CN2CCN(c3ccccc3)CC2)nc2ccccc21 |  |
| 126 nM |  |  |  |  |  | FC(F)(F)c1cnc(N2CCN(Cc3nc4ccccc4n3Cc3ccccc3)CC2)c(Cl)c1 |  |
| 126 nM | 1260 nM | 2510 nM | 69% | > 10000 nM | > 10000 nM | Cn1c(CN2CCN(c3ncc(Cl)cn3)CC2)nc2ccccc21 | Activity [6]: inactive; Activity [7]: inactive; Activity [8]: inactive; Activity [9]: inactive; Activity [10]: inactive; Activity [11]: inactive; Activity [12]: inactive; Activity [13]: inactive; Activity [14]: inactive |
| 12600 nM |  |  |  |  |  | Clc1cnc(N2CCN(Cc3nc4ccccc4[nH]3)CC2)nc1 |  |
| 794 nM | 6310 nM |  | 64% |  |  | Cn1c(CN2CCN(c3ccccc3F)CC2)nc2ccccc21 |  |
| 79.4 nM | 2000 nM | 631 nM | 71% | 5010 nM | 5010 nM | Cn1c(CN2CCN(c3ncc(C(F)(F)F)cc3Cl)CC2)nc2ccccc21 | Activity [6]: inactive; Activity [7]: inactive; Activity [8]: inactive; Activity [9]: inactive; Activity [10]: inactive; Activity [11]: inactive; Activity [12]: inactive; Activity [13]: inactive; Activity [14]: inactive |
| 2000 nM |  |  |  |  |  | Cn1c(CN2CCN(c3ncc(C(F)(F)F)cc3Cl)CC2)nc2cc(C(F)(F)F)ccc21 |  |
| 501 nM | 6310 nM | 1000 nM | 81% | > 10000 nM | > 10000 nM | Cn1c(CN2CCN(c3ccc(C(F)(F)F)cn3)CC2)nc2ccccc21 |  |
| 200 nM | 6310 nM | 398 nM | 84% | > 10000 nM | > 10000 nM | Cn1c(CN2CCN(c3ccc(C(F)(F)F)cc3)CC2)nc2ccccc21 |  |
| 501 nM |  |  |  |  |  | COCCn1c(CN2CCN(c3ncc(Cl)cn3)CC2)nc2ccccc21 |  |
| 126 nM |  |  |  |  |  | Cn1c(CN2CCN(c3ncc(C(F)(F)F)cc3Cl)CC2)nc2ccc(F)cc21 |  |
| 50.1 nM |  |  |  |  |  | Cn1c(CN2CCN(c3ncc(C(F)(F)F)cc3Cl)CC2)nc2cc(C#N)ccc21 |  |
| 126 nM | 2510 nM | 251 nM | 69% |  |  | Cn1c(CN2CCN(c3ccc(Cl)cc3F)CC2)nc2ccccc21 |  |
| 126 nM | 3980 nM |  |  |  | 39.8 nM | Cn1c(CN2CCC(c3ccccc3F)CC2)nc2ccccc21 | EC50 [8]: > 15800 nM; EC50 [9]: > 15800 nM; EC50 [11]: > 15800 nM; EC50 [12]: > 15800 nM; EC50 [14]: > 15800 nM; solubility [15]: 31 µg/mL (≈ 95.9 µM) |
| 794 nM |  |  |  |  |  | CCCn1c(CN2CCN(c3ncc(Cl)cn3)CC2)nc2ccccc21 |  |
